{"source": "patent US20100004131A1", "about": "“SOLID FORMULATIONS OF HYDROGEN CYANAMIDE FOR AGRICULTURAL APPLICATIONS” (Metbro Distributing, L.P., priority 2007, published 2010)", "assay_type_in_all_cases": "in vivo", "conditions_in_all_cases": "applied in granular form; pre-plant and final test results collectively", "key": {"Dorylaimida nematodes": {"system": "Dorylaimida nematodes", "assay": "Nematicidal activity of granules in infested silt loam pots: Dorylaimida nematodes", "procedure": "(§1) The soil used in this study was naturally infested with three species of nematodes, one of which was deleterious, and the other two beneficial, and observations were made of both the survival of the nematodes and the growth of the soybean plants.\n(§2) The hydrogen cyanamide granules were prepared by impregnating PROFILE granules (15 mesh) with DORMEX (50% hydrogen cyanamide in aqueous solution with phosphate buffer), and drying the moist granules on trays at 20° C. for 24 hours to achieve granules containing hydrogen cyanamide at a concentration of 25% by weight. Planting pots measuring 10 cm in diameter were used. Each pot contained 1 kg of silt loam from a cotton field, pH 6.2, CEC<10 meq/100 g soil, organic matter<1.0%, the soil being severely infested with the deleterious reniform nematode (Rotylenchulus reniformis). […]\n(§3) After the polyethylene bags were removed, each pot was planted with Hutcheson soybean seeds at 5 seeds per pot, and the seeds were allowed to germinate and the plants to grow for 39 days. […] The number of surviving nematodes in each pot were determined, as were the number of nematodes in the root systems, the weights of both the fresh shoots and the roots, and the shoot height. […] Fischer's Least Significant Difference at p 0.05 was calculated when appropriate. […]"}, "[1]": {"system": "reniform nematode (Rotylenchulus reniformis)", "assay": "Nematicidal activity of granules in infested silt loam pots: reniform nematodes", "procedure": "as §1, §2, §3"}, "[2]": {"system": "microbivorous (beneficial) nematodes", "assay": "Nematicidal activity of granules in infested silt loam pots: microbivorous nematodes", "procedure": "as §1, §2, §3"}}, "data": [{"smiles": "N#CN", "note": "[hydrogen cyanamide]", "values": [{"measurement": "populations of the Dorylaimida nematodes", "setting": "Dorylaimida nematodes", "result": "affected"}, {"measurement": "nematicidal activity against the reniform nematodes", "setting": "[1]", "result": "without loss of nematicidal activity"}, {"measurement": "populations of the microbivorous nematodes", "setting": "[2]", "result": "not significantly affected"}]}]}
